# Data as given in patent publication US9896474B2, “(3A,9B,10A,13A,14B,17A,20S,22E)-ergosta-5,7,22-trien-3-ol and methods of preparing and using the same” (priority 2014, dated 2018).
# Where “and” joins values, the source holds several entries; their conditions need not be identical. Equal values may be shown once.
# Tests used:
# [1] = system: H22 liver cancer model; experiment: Antitumor experiment against H22 tumor bearing mice; format: in vivo; details: 10 days; for Net weight variation (g) / Tumor weight: x ± s
# From the text: Antitumor Experiment of C310-6 Against H22 Tumor Bearing Mice
# H22 tumor bearing mice were adopted to observe the effect of the anti-liver cancer of five classes of mixtures.
# H22 tumor bearing mouse inoculated with the tumor for 8-13 days and in good condition was killed by dislocation. Body surface of the mouse was disinfected by alcohol. The tumors were separated from the mouse and placed in sterile petri dish containing normal saline in a sterile environment (super clean bench). The tumors were cut into small piece and transferred to a tissue homogenizer, the normal saline was added with a volume ratio of the tumor piece to the normal saline being 1:3, a resulting homogenate was put into a 50 mL sterile centrifuge tube. 0.2 mL of the homogenate was inoculated to right axilla of each C57BL/6 mouse by 1 mL syringe. The tumor cell suspension was prepared in the sterile environment (the super clean bench), and the serial operations from separation of the abdominal dropsy of the tumor to the tumor inoculation were accomplished in 60 min
# (§1) Oral agent of C310-6: a certain weight of C310-6 sample was placed in a mortar, and Tween-80 having a volume of 2% of a certain volume of a solvent was added and fully ground. Thereafter, the normal saline was added and fully stirred to form a solution. Solutions having a concentration of the C310-6 sample of 24 mg/mL, 8 mg/mL, and 2.7 mg/mL were prepared.
# (§2) Oral agent of CTX: CTX pill was removed from a film and a certain amount of the pill was placed in a mortar. A certain volume of normal saline was added, fully ground, and mixed to prepare a solution having a concentration of CTX to be 3.4 mg/mL.
# (§3) 60 experimental mice were divided into 6 groups with each group having 10 mice, a half of the mice being female and another half of the mice being male. The groups are specifically as follows: 1) group administered with a low dose of C310-6 (27 mg/kg), 2) group administered with middle dose of C310-6 (80 mg/kg), 3) group administered with high dose of C310-6 (240 mg/kg), 4) group administered with CTX, 5) model group, and 6) blank control group. The above groups, except the model group and the blank control group, are administered with 0.3 mL of the drugs once a day after the injection of the tumor suspension, and the administration was lasted for 10 days. The model group and the blank control group are administered orally with equal volume of aqua solutions containing 2 v. % of Tween-80 for 10 days.
# (§4) The weight and food intake of the mice were weighed and recorded every day, and a net weight of each mouse after tumor removal was calculated at the last time.
# (§5) The separated tumor tissue was weighed, and the inhibition rate on the tumor growth was calculated according to the following equation: […]
# Data of mice in each group were expressed by and were processed by SPSS software, each group was examined by one-way ANOVA.
# [2] = system: Lewis lung cancer model; experiment: Anti-Lewis tumor experiment (Lewis lung cancer bearing mouse); format: in vivo; details: Lewis mice, 10 days; for Net weight variation (g) / Tumor weight: x ± s
# From the text: The purpose of the experiment was adopting the Lewis tumor bearing mouse model to observe the antitumor effect of C310-6.
# Tumor bearing mouse inoculated with the tumor for 8-13 days and in good condition was killed by dislocation. Body surface of the mouse was disinfected by alcohol. The tumors were separated from the mouse and placed in sterile petri dish containing normal saline in a sterile environment (super clean bench). The tumors were cut into small piece and transferred to a tissue homogenizer, the normal saline was added with a volume ratio of the tumor piece to the normal saline being 1:3, a resulting homogenate was put into a 50 mL sterile centrifuge tube. 0.2 mL of the homogenate was inoculated to right axilla of each KM mouse by 1 mL syringe. The tumor cell suspension was prepared in the sterile environment (the super clean bench), and the serial operations from the tumor separation to the tumor inoculation were accomplished in 60 min
# as §1, §2
# as §3, with “0.2” for “0.3”
# as §4, §5
# Data of mice in each group were expressed by corresponding data and were processed by SPSS software, each group was examined by one-way ANOVA.
# [3] = system: human hepatoma cells Hep-g2; experiment: iCELLigence real-time cell-analyzer (RTCA) growth monitoring, Hep-g2; format: cell-based; details: 1.6-100 μg/mL, 48 hrs, FIG. 6
# Procedure: 1. Eight-well plate (E-Plate L8) supplied by ACEA Bio (Hangzhou) Co. Ltd. was combined with an iCELLigence real-time cell-analyzer (RTCA). 150 μL of a complete F-12K medium was added to each well and the eight-well plate was placed in an incubator at a temperature of 37° C. and an atmosphere of 5% CO2, and the background data were regulated to 40-130. The compound C310-6 was fully dissolved by dimethyl sulfoxide to concentrations of 100 mg/mL, 50 mg/mL, 25 mg/mL, 12.5 mg/mL, 6.3 mg/mL, 3.1 mg/mL, and 1.6 mg/mL, and then diluted to by the complete F-12K medium obtain working solutions having concentrations of 10 mg/mL, 5 mg/mL, 2.5 mg/mL, 1.25 mg/mL, 0.63 mg/mL, 0.31 mg/mL, and 0.16 mg/mL. Well cultivated human hepatoma cells Hep-g2 were digested by trypsin and diluted into live cell suspensions with a concentration of 4×10^4/mL. Thereafter, 345 μL of the live cell suspension of C310-6 was inoculated to each well of an eight-well plate, and then 5 μL of the working solution was added to each well to enable final concentrations of the C310-6 compound to be 100 μg/mL, 50 μg/mL, 25 μg/mL, 12.5 μg/mL, 6.3 μg/mL, 3.1 μg/mL, and 1.6 μg/mL. An eighth hole was added with the complete F-12K medium containing 1 wt. % of dimethyl sulfoxide as a blank control group, and was displaced into the incubator at 37° C. and 5% CO2 for 48 hrs.
# [4] = system: human lung cancer cells A549; experiment: MTT assay on human lung cancer cells A549; format: cell-based; details: A549 section, 48 hrs, OD 490 nm, read-out: 1050 value (cell viability curve)
# [5] = system: human hepatoma cells Hep-g2; experiment: MTT assay on human hepatoma cells Hep-g2; format: cell-based; details: HepG2, 48 hrs, OD 490 nm, read-out: 1050 value (cell viability curve)
# Procedure: a. 250 mg of 3-(4,5-dimethylthiazol-2-yl)-2,5-diphenyltetrazolium bromide (MTT) was dissolved by 50 mL of phosphate buffered saline (PBS) having a concentration of 0.01 mol/L and PH=7.45 to yield a MTT solution having a final concentration of 5 mg/mL. The MTT solution was dispensed and protected against light at the temperature of −20° C. after filtration and sterilization.
# b. A suspension of single cell line was prepared and inoculated into 96-well plate (cells were diluted to a concentration of 4×10^4/mL by the F-12K basic culture medium, 100 μL diluted cells were added to each well and cultivated at 37° C., 5% CO2 for 20 hrs, each group was provided with 4 parallel samples).
# c. The culture medium was removed; and new culture mediums were prepared according to serial concentration of the antitumor drug (C310-6), each well was added with 100 μL of the new culture medium and cells were cultivated for 48 hrs.
# d. 20 μL of MTT solution having the concentration of 5 mg/mL was added to each well for incubating the cells for 4 hrs.
# e. […]
# f. OD values were measured by a microplate reader, λ=490 nm
# g. A cell viability curve was charted, 1050 value was calculated to be 14.152 μg/mL, which means that the compound has excellent human hepatoma cells Hep-g2 activity resistance.
# [6] = system: human lung cancer cells A549; experiment: iCELLigence real-time cell-analyzer (RTCA) growth monitoring, A549; format: cell-based; details: 1.6-100 μg/mL, 48 hrs, FIG. 7
smiles,measurement,setting,value
"O=P1(N(CCCl)CCCl)NCCCO1 (centres unmarked) [CTX, cyclophosphamide, reference compound]",Liver transfer rate (%),[1]; 20 mg/kg oral once a day,0%
same,Survival rate (%),[1]; 20 mg/kg oral once a day,100%
same,Tumor inhibition rate (%),[1]; 20 mg/kg oral once a day,52.9%
same,Net weight variation (g),[1]; 20 mg/kg oral once a day,1.73 ± 2.73**※※ g
same,Tumor weight,[1]; 20 mg/kg oral once a day,0.25 ± 0.21 g
same,Lung cancer transmission rate (%),[2]; 20 mg/kg oral once a day,20%
same,Survival rate (%),[2]; 20 mg/kg oral once a day,100%
same,Tumor inhibition rate (%),[2]; 20 mg/kg oral once a day,46.29%
same,Net weight variation (g),[2]; 20 mg/kg oral once a day,−0.94 ± 1.03**※※ g
same,Tumor weight,[2]; 20 mg/kg oral once a day,0.90 ± 0.39 g
"CC(C)[C@@H](C)/C=C/[C@H](C)[C@@H]1CC[C@@H]2C3=CC=C4C[C@H](O)CC[C@@]4(C)[C@@H]3CC[C@]21C [C310-6, (3α,9β,10α,13α,14β,17α,20S,22E)-ergosta-5,7,22-trien-3-ol]",growth of human hepatoma cells Hep-g2 (real-time data),[3],inhibited
same,IC50,[4],14.2 µg/mL
same,IC50,[5],14.2 µg/mL
same,growth of human lung cancer cells A549 (real-time data),[6],inhibited
same,Liver transfer rate (%),[1]; 27 mg/kg oral once a day,0%
same,Survival rate (%),[1]; 27 mg/kg oral once a day,100%
same,Tumor inhibition rate (%),[1]; 27 mg/kg oral once a day,23.4%
same,Net weight variation (g),[1]; 27 mg/kg oral once a day,6.92 ± 2.65∘∘ g
same,Tumor weight,[1]; 27 mg/kg oral once a day,0.42 ± 0.60 g
same,Liver transfer rate (%),[1]; 80 mg/kg oral once a day,0%
same,Survival rate (%),[1]; 80 mg/kg oral once a day,100%
same,Tumor inhibition rate (%),"[1]; 80 mg/kg oral once a day, 80 mg/kg",> 40% and 41.1%
same,Net weight variation (g),[1]; 80 mg/kg oral once a day,7.78 ± 3.72∘∘ g
same,Tumor weight,[1]; 80 mg/kg oral once a day,0.32 ± 0.43 g
same,Liver transfer rate (%),[1]; 240 mg/kg oral once a day,0%
same,Survival rate (%),[1]; 240 mg/kg oral once a day,100%
same,Tumor inhibition rate (%),"[1]; 240 mg/kg oral once a day, 240 mg/kg",> 40% and 64.4%
same,Net weight variation (g),"[1]; 240 mg/kg oral once a day, weight after tumor removal vs original",5.70 ± 4.05*※∘∘ g
same,Tumor weight,[1]; 240 mg/kg oral once a day,0.19 ± 0.18 g
same,Lung cancer transmission rate (%),[2]; 27 mg/kg oral once a day,40%
same,Survival rate (%),[2]; 27 mg/kg oral once a day,100%
same,Tumor inhibition rate (%),[2]; 27 mg/kg oral once a day,15.76%
same,Net weight variation (g),[2]; 27 mg/kg oral once a day,−0.36 ± 1.33**※※ g
same,Tumor weight,[2]; 27 mg/kg oral once a day,1.42 ± 0.94 g
same,Lung cancer transmission rate (%),[2]; 80 mg/kg oral once a day,50%
same,Survival rate (%),[2]; 80 mg/kg oral once a day,100%
same,Tumor inhibition rate (%),[2]; 80 mg/kg oral once a day,28.39%
same,Net weight variation (g),[2]; 80 mg/kg oral once a day,−0.95 ± 1.30**※※ g
same,Tumor weight,[2]; 80 mg/kg oral once a day,1.21 ± 0.26 g
same,Lung cancer transmission rate (%),[2]; 240 mg/kg oral once a day,30%
same,Survival rate (%),[2]; 240 mg/kg oral once a day,100%
same,Tumor inhibition rate (%),[2]; 240 mg/kg oral once a day,44.59%
same,Net weight variation (g),[2]; 240 mg/kg oral once a day,−0.61 ± 1.36**※※ g
same,Tumor weight,[2]; 240 mg/kg oral once a day,0.93 ± 0.45 g
